Assay results published in paper PMC10269678, “Identification of Fungus-Derived Natural Products as New Antigiardial Scaffolds” (Microbiology Spectrum, 2023).
Like-named read-outs stand apart in the source and are kept apart here.

Assays:
G. lamblia strain CBG99 [1] = assay: G. lamblia CBG99 luciferase reporter trophozoite growth assay; type: cell-based, Giardia lamblia; settings: for inhibition at 10 µM: read-out: % inhibition at 10 μM; for times more potent than metronidazole: relative to metronidazole EC50 of 5 μM; for % inhibition at 10 μM: pNP tested at 10 μM, G. lamblia growth, primary screen
Text: For in vitro Giardia assays, we used a click beetle green (CBG99) luciferase-based reporter system that was developed for quantitative bioluminescence readouts of growth in trophozoites ([13][–][15]). The CBG99 reporter gene is under the control of the glutamate dehydrogenase promoter, which is highly expressed in the G. lamblia trophozoite stage, making it useful for monitoring growth even in mouse infection models ([15]). The compound library was obtained from the Natural Products Discovery Group (NPDG) at the University of Oklahoma ([16]). A combination of 755 purified natural products (pNPs) and 1,056 fungal extracts were screened against G. lamblia strain CBG99. Hits were defined as samples that caused ≥50% growth inhibition activity at 10 μM (pNPs) or 5 μg/mL (extracts). […] Only 2 were considered false positives (EC50 > 10 μM) (Table 2).

G. lamblia strain CBG99 [2] = tested on: G. lamblia strain CBG99; set-up: method as in PMID 26324270; settings: cited from earlier work
[3] = Giardia duodenalis, read-out: EC50 ± SD (μM)
[4] = Giardia duodenalis, read-out: EC50 against G. lamblia trophozoite
[5] = G. lamblia trophozoite growth in vitro, Table 2, read-out: EC50 ± SD

In the case of `COC1=CC(=O)CC(C)C12Oc1cc(OC)cc(OC)c1C2=O` (centres unmarked) [J16A, Dechlorogriseofulvin], the EC50 (G. lamblia strain CBG99 [1]; Giardia duodenalis, read-out: Giardia EC50 (μM)) is reported as over 15 µM.
Compound `CC(C)C1NC(=O)C(CC2(O)c3ccccc3N3C(=O)C(C)(C)NC32)n2c1nc1ccccc1c2=O` (stereo not drawn) [J16E, epi-Fiscalin C] has an EC50 (G. lamblia strain CBG99 [1]; Giardia duodenalis) of 0.555 µM.
In the case of `COC1=CC(=O)C[C@@H](C)[C@]12Oc1c(Cl)c(OC)cc(OC)c1C2=O` [J16K, Griseofulvin], the EC50 (G. lamblia strain CBG99 [1]; Giardia duodenalis) is reported as 7.88 µM.
For `CC1(C)C(=O)N2c3ccccc3C3(CC(n4cnc5ccccc5c4=O)C(=O)O3)C2N1O` (centres unmarked) [J16L, Tryptoquivaline L], the EC50 (G. lamblia strain CBG99 [1]; Giardia duodenalis) was 7.15 µM.
With `CC(C)=C1NC(=O)C(CC2(O)c3ccccc3N3C(=O)C(C)(C)NC32)n2c1nc1ccccc1c2=O` (centres unmarked) [J16M, Quinadoline A] the EC50 (G. lamblia strain CBG99 [1]; Giardia duodenalis) was 3.29 µM.
Work on `COC12OC1(C13OC1(OC)C(=O)c1cc4cc(C)oc(=O)c4c(O)c1C3O)C(O)c1c(cc3cc(C)oc(=O)c3c1O)C2=O` (centres unmarked) [J16R, Xanthoepocin] yielded an EC50 (G. lamblia strain CBG99 [1]; Giardia duodenalis) of 0.146 µM.
`CC(C)C(=O)c1nc2ccccc2c(=O)n1C1CC2(OC1=O)c1ccccc1N1C(=O)C(C)(C)NC12` (centres unmarked) [J36B] showed an EC50 (G. lamblia strain CBG99 [1]; Giardia duodenalis) of 0.044 µM.
Compound `CC(=O)ON1C2N(C(=O)C1(C)C)c1ccccc1C21CC(n2c(C(O)C(C)C)nc3ccccc3c2=O)C(=O)O1` (centres unmarked) [J36C, isotryptoquivaline] has an EC50 (G. lamblia strain CBG99 [1]; Giardia duodenalis) of 0.84 µM.
In the case of `N[C@H](C(=O)O)[C@@H]1CC(Cl)=NO1` [NPDG 120071, Acivicin], the inhibition at 10 µM (G. lamblia strain CBG99 [1]; Giardia duodenalis) is reported as 85% and the EC50 (G. lamblia strain CBG99 [1]; [3]) is reported as over 10 µM.
Work on `COC(=O)C1=C[C@@H](O)[C@@H](O)[C@@H](O)[C@H]1N1C[C@H](O)[C@@H](OC(C)=O)[C@H]1Cc1ccc(OC)cc1` [NPDG 150029, Anisomycin 1-N-pericosine] yielded an inhibition at 10 µM (G. lamblia strain CBG99 [1]; Giardia duodenalis) of 86% and an EC50 (G. lamblia strain CBG99 [1]; [3]) of 3.32 ± 0.01 µM.
With `CO[C@@H]1[C@H](OC(=O)\C=C/C=C/C=C/C=C/C(=O)O)CC[C@]2(CO2)[C@H]1[C@@]1(C)O[C@@H]1CC=C(C)C` [NPDG 150049, cis-Fumagillin] the inhibition at 10 µM (G. lamblia strain CBG99 [1]; Giardia duodenalis) was 85%, the EC50 (G. lamblia strain CBG99 [1]; [4]) was under 0.2 µM and the EC50 (G. lamblia strain CBG99 [1]; [3]) was 0.03 ± 0.02 µM. For the same compound, the “times more potent than metronidazole” value (G. lamblia strain CBG99 [1]) was over 25 times.
For `COC(=O)c1c(Sc2c(O)cc3oc4cc(C)cc(O)c4c(=O)c3c2C(=O)OC)c(O)cc(OC)c1C(=O)c1c(O)cc(C)cc1O` [NPDG 150051, Dioschrin], the EC50 (G. lamblia strain CBG99 [1]; [5]) was 3.21 ± 0.61 µM and the “% inhibition at 10 μM” value (G. lamblia strain CBG99 [1]) was 82%.
For `CC(=O)OC(C)(C)[C@H]1O[C@H]2CC[C@@]3(C)[C@@](O)(CC[C@H]4Cc5c([nH]c6ccccc56)[C@@]43C)C2=CC1=O` [NPDG 150113, 1′-O-acetylpaxilline], the EC50 (G. lamblia strain CBG99 [1]; [5]) was 3.4 µM and the “% inhibition at 10 μM” value (G. lamblia strain CBG99 [1]) was 82%.
Work on `C/C=C/C=C/C=C/C(=O)O[C@@H]1C=C2COC(=O)[C@]2(O)[C@@]2(C)CCCC(C)(C)[C@H]12` [NPDG 150125, RES-1149-2] yielded an inhibition at 10 µM (G. lamblia strain CBG99 [1]; Giardia duodenalis) of 88%, an EC50 (G. lamblia strain CBG99 [1]; [4]) of under 0.2 µM and an EC50 (G. lamblia strain CBG99 [1]; [3]) of 0.18 ± 0.11 µM. For the same compound, the “times more potent than metronidazole” value (G. lamblia strain CBG99 [1]) was over 25 times.
`C/C=C(\C)c1cc(OC)c(C)c2c1Oc1c(CO)c(O)cc(/C(C)=C/C(=O)O)c1C(=O)O2` [NPDG 150134, Auranticin A] showed an inhibition at 10 µM (G. lamblia strain CBG99 [1]; Giardia duodenalis) of 89% and an EC50 (G. lamblia strain CBG99 [1]; [3]) of 4.44 ± 3.02 µM.
`COC1C(OC(=O)C=CC=CC=CC=CC(=O)O)CCC(O)(CCl)C1C1(C)OC1CC=C(C)C` (centres unmarked) [NPDG 150137] gave an inhibition at 10 µM (G. lamblia strain CBG99 [1]; Giardia duodenalis) of 90%, an EC50 (G. lamblia strain CBG99 [1]; [4]) of under 0.2 µM and an EC50 (G. lamblia strain CBG99 [1]; [3]) of 0.006 µM. For the same compound, the “times more potent than metronidazole” value (G. lamblia strain CBG99 [1]) was over 25 times.
With `C=C1CC[C@@H](OC(=O)/C=C/C=C/C=C/C=C/C(=O)O)[C@@H](OC)[C@H]1[C@@]1(C)O[C@@H]1CC=C(C)C` [NPDG 150138, Sch 528647] the EC50 (G. lamblia strain CBG99 [1]; [5]) was 3.09 ± 0.16 µM and the “% inhibition at 10 μM” value (G. lamblia strain CBG99 [1]) was 88%.
Compound `COC1=CC(=O)c2c(O)c(C)c(CC(C)=O)c(O)c2C1=O` [NPDG 160012, Javanicin] has an inhibition at 10 µM (G. lamblia strain CBG99 [1]; Giardia duodenalis) of 89% and an EC50 (G. lamblia strain CBG99 [1]; [3]) of 1.26 ± 1.01 µM.
Work on `CC(=O)C1=C(O)[C@@H]2[C@H]3c4c[nH]c5cccc(c45)C[C@H]3C(C)(C)N2C1=O` [NPDG 170027, Cyclopiazonic acid] yielded an inhibition at 10 µM (G. lamblia strain CBG99 [1]; Giardia duodenalis) of 81% and an EC50 (G. lamblia strain CBG99 [1]; [3]) of 1.3 ± 0.71 µM.
Work on `CC(=O)O[C@H]1C[C@@]2(C)[C@@H](CC[C@H]3[C@@]4(C)C=CC(=O)[C@@H](C)[C@@H]4[C@H](OC(C)=O)C(=O)[C@@]32C)/C1=C(\CCC=C(C)C)C(=O)O` [NPDG 170028, Helvolic acid] yielded an inhibition at 10 µM (G. lamblia strain CBG99 [1]; Giardia duodenalis) of 83% and an EC50 (G. lamblia strain CBG99 [1]; [3]) of 3.36 ± 0.14 µM.
Work on `CO[C@@H]1[C@H](OC(=O)/C=C/C=C/C=C/C=C/C(=O)O)CC[C@]2(CO2)[C@H]1[C@@]1(C)O[C@@H]1CC=C(C)C` [NPDG 170035, Fumagillin] yielded an inhibition at 10 µM (G. lamblia strain CBG99 [1]; Giardia duodenalis) of 88%, an EC50 (G. lamblia strain CBG99 [1]; [4]) of under 0.2 µM and an EC50 (G. lamblia strain CBG99 [1]; [3]) of 0.004 µM. The “times more potent than metronidazole” value (G. lamblia strain CBG99 [1]) was over 25 times.
In the case of `C[C@@H]1N[C@H]2N(C1=O)c1ccccc1[C@@]21C[C@@H]2C(=O)N[C@@](C)(O1)c1nc3ccccc3c(=O)n12` [NPDG 170098, Fumiquinazoline C], the EC50 (G. lamblia strain CBG99 [1]; [5]) is reported as 6.92 ± 8.5 µM and the “% inhibition at 10 μM” value (G. lamblia strain CBG99 [1]) is reported as 82%.
In the case of `Cc1ncc([N+](=O)[O-])n1CCO` [metronidazole], the EC50 (G. lamblia strain CBG99 [2]) is listed as 5 µM.
With Perfraglin A [NPDG 120038] the EC50 (G. lamblia strain CBG99 [1]; [5]) was over 10 µM and the “% inhibition at 10 μM” value (G. lamblia strain CBG99 [1]) was 75%.
